Measurements published in patent publication US9611289B2, “Farnesoid X receptor modulators” (Intercept Pharmaceuticals, Inc., priority 2013, dated 2017).
Converted amounts (≈) assume the structure as drawn. Counter-ions that a name gives are not always drawn. Like-named read-outs stand apart in the source and are kept apart here. Values belong to the compound of their own block, whether it stands above or below them.

Columns and labels:
[1] = Critical micellar concentration; assay type: physicochemical; settings: […] NaCl water solution
Surface tension at CMC = assay type: physicochemical; settings: […] NaCl water solution
[2] = 1-octanol-water partition coefficient (LogPA-); settings: ionized species
PXR [3] = biological target: T1, PXR (Homo sapiens, UniProt O75469); assay: AlphaScreen nuclear receptor activation; assay type: biochemical
T1 sequence (O75469 1-434): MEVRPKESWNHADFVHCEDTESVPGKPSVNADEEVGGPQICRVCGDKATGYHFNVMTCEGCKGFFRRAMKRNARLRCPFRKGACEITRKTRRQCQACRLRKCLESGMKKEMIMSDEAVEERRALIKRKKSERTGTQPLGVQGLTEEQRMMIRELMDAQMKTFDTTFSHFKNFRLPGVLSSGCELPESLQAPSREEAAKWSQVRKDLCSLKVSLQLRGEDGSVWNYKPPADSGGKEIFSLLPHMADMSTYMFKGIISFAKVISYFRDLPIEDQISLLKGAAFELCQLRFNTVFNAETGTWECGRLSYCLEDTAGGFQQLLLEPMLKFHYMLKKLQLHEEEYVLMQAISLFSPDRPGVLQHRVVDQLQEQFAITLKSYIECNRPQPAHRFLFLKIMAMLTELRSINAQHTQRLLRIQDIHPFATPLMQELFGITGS

RARα = RARα (Homo sapiens, UniProt P10276); assay: AlphaScreen nuclear receptor activation; assay type: biochemical
HepG2 cells [4] = assay: Cell viability by intracellular ATP in HepG2 cells; assay type: cell-based, human; settings: 4 h, different concentrations, FIG. 6
HepG2 cells [5] = settings: for living cells: LDH measure
CYP1A2 = biological target: T2, CYP1A2 (Homo sapiens, UniProt P05177); assay: biochemical
T2 sequence (P05177 1-516): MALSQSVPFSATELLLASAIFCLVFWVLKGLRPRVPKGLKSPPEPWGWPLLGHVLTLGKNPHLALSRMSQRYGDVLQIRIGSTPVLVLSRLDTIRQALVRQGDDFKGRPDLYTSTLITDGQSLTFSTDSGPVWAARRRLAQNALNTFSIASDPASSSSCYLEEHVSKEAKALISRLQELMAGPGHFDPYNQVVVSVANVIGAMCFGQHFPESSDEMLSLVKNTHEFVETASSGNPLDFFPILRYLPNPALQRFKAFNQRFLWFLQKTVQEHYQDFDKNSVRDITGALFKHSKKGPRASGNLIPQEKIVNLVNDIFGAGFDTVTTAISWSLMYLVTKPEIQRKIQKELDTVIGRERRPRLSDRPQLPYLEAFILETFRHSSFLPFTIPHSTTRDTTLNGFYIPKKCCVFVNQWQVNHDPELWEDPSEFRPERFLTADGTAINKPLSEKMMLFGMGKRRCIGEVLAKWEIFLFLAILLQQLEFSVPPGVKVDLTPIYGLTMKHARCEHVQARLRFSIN

CYP3A4 [6] = biological target: T3, CYP3A4 (Homo sapiens, UniProt P08684); assay: biochemical
CYP2C9 = CYP2C9 (Homo sapiens, UniProt P11712); assay: biochemical
CYP2C19 = CYP2C19 (Homo sapiens, UniProt P33261); assay: biochemical
CYP2D6 = CYP2D6 (Homo sapiens, UniProt P10635); assay: biochemical
CYP2E1 = CYP2E1 (Homo sapiens, UniProt P05181); assay: biochemical
hERG potassium channel = hERG potassium channel (Homo sapiens, UniProt Q12809); assay: PREDICTOR hERG Fluorescence Polarization assay; settings: CHO-hERG membrane preparations
CYP3A4 [7] = biological target: T3, CYP3A4; assay: CYP450 inhibition, recombinant baculosomes, fluorescent signal; settings: read-out: CYP3A4 (Green Substrate) IC50
FXR target genes = assay: Quantitative RT-PCR of FXR target genes in HepG2 cells; assay type: cell-based, human; settings: 1 μM, overnight
CAR = CAR (Homo sapiens, UniProt Q14994); settings: read-out: CAR Activation EC50; *inverse agonist; taken from Rizzo et al. 2010; cited from earlier work
PXR [8] = biological target: T1, PXR; settings: taken from Rizzo et al. 2010; cited from earlier work
PR = PR (Homo sapiens, UniProt P06401); assay: AlphaScreen nuclear receptor activation; assay type: biochemical
HepG2 cells [9] = assay: cells; settings: Homo sapiens, HepG2, read-out: Membrane integrity EC50 (μM) (LDH measure)

SMILES: CC[C@H]1[C@@H](O)C2C3CCC(C(C)CC(C)C(=O)O)[C@@]3(C)[C@@H](O)CC2[C@@]2(C)CC[C@@H](O)C[C@@H]12 (stereo in doubt) [Compound C, 6α-ethyl-23(S)-methyl-3α,7α,12α trihydroxy-5β-cholan-24-oic acid]
CMC(b) (mM) Critical Micellar Concentration [1]: 2 mM
STCMC(c) (Dyne/cm) Surface Tension at CMC (Surface tension at CMC): 50.1 Dyne/cm
LogPA−(d) 1-octanol-water partition coefficient [2]: 1.4

CMC(b) (mM) Critical Micellar Concentration [1]: 3.2 mM
STCMC(c) (Dyne/cm) Surface Tension at CMC (Surface tension at CMC): 45.5 Dyne/cm
LogPA−(d) 1-octanol-water partition coefficient [2]: 2.2
SMILES: C[C@H](CCC(=O)O)[C@H]1CC[C@H]2[C@@H]3[C@H](O)C[C@@H]4C[C@H](O)CC[C@]4(C)[C@H]3CC[C@]12C [CDCA, chenodeoxycholic acid]

SMILES: CC[C@H]1[C@@H](O)[C@@H]2[C@H]([C@@H](O)C[C@]3(C)[C@@H]([C@H](C)CCC(=O)O)CC[C@@H]23)[C@@]2(C)CC[C@@H](O)C[C@@H]12 [Compound 100, 3α,7α,11β-trihydroxy-6α-ethyl-5β-cholan-24-oic acid]
PXR Activation EC50 (μM) (PXR [3]): No activity
RARα Activation EC50 (μM) (RARα): No activity
viable cells (ATP measurement) (HepG2 cells [4]): 100%
living cells (HepG2 cells [5]; HepG2 cells): (100% living cells)
cytotoxic effect on HepG2 cells (HepG2 cells [5]; LDH release): does not induce any cytotoxic effect
IC50 (CYP1A2): > 10 µM
IC50 (CYP3A4 [6]): > 10 µM
IC50 (CYP2C9): > 10 µM
IC50 (CYP2C19): > 10 µM
IC50 (CYP2D6): > 10 µM
IC50 (CYP2E1): > 10 µM
solubility (Water solubility): 143 to 150 µM (≈ 62.4 to 65.5 µg/mL)
block or inhibition of the hERG potassium channel (hERG potassium channel): does not block or inhibit
LogPA−(d) 1-octanol-water partition coefficient [2]: 0.8
IC50 (CYP3A4 [7]): > 10 µM

SMILES: CC[C@H]1[C@@H](O)C2C3CC[C@H]([C@H](C)CCC(=O)O)[C@@]3(C)C[C@@H](O)C2[C@@]2(C)CC[C@@H](O)C[C@@H]12 (stereo partly drawn) [Compound 101]
Membrane integrity EC50 (μM) (LDH measure) (HepG2 cells [5]; HepG2 cells): No toxicity
living cells (HepG2 cells [5]; HepG2 cells): (100% living cells)

SMILES: CC[C@H]1[C@@H](O)[C@@H]2[C@H](CC[C@]3(C)[C@@H]([C@H](C)CCOS(=O)(=O)O)CC[C@@H]23)[C@@]2(C)CC[C@@H](O)C[C@@H]12 [Compound B, 6α-ethyl-3α,7α,23-trihydroxy-24-nor-5β-cholan-23-sulfate sodium salt]
CYP7α1 gene expression (FXR target genes): down
EC50 (CAR): 44 µM
PXR Activation EC50 (μM) (PXR [8]): No activity
IC50 (CYP1A2): > 10 µM
IC50 (CYP3A4 [6]): > 10 µM
IC50 (CYP2C9): > 10 µM
IC50 (CYP2C19): > 10 µM
IC50 (CYP2D6): > 10 µM
IC50 (CYP2E1): > 10 µM
block or inhibition of the hERG potassium channel (hERG potassium channel): does not block or inhibit
LogPA−(d) 1-octanol-water partition coefficient [2]: 2.0
IC50 (CYP3A4 [7]): > 10 µM

SMILES: CC[C@H]1[C@@H](O)C2C3CC[C@H]([C@H](C)C[C@H](C)C(=O)O)[C@@]3(C)CCC2[C@@]2(C)CC[C@@H](O)C[C@@H]12 (stereo partly drawn) [Compound D, 6α-ethyl-23(R)-methyl chenodeoxycholic acid]
solubility (Water solubility): 15 µM (≈ 6.52 µg/mL)
LogPA−(d) 1-octanol-water partition coefficient [2]: 2.9

SMILES: CC[C@H]1[C@@H](O)C2C3C[C@H](O)[C@H]([C@H](C)CCC(=O)O)[C@@]3(C)CCC2[C@@]2(C)CC[C@@H](O)C[C@@H]12 (stereo partly drawn) [Compound E]
CMC(b) (mM) Critical Micellar Concentration [1]: 5.9 mM
STCMC(c) (Dyne/cm) Surface Tension at CMC (Surface tension at CMC): 52.4 Dyne/cm
solubility (Water solubility): 120 µM (≈ 52.4 µg/mL)
LogPA−(d) 1-octanol-water partition coefficient [2]: 1.6

EC50 (PR): 0.05 µM
SMILES: C[C@]12C[C@H](O)[C@H]3[C@@H](CCC4=CC(=O)CC[C@@]43C)[C@@H]1CC[C@@H]2C(=O)CO [Corticosterone]

EC50 (HepG2 cells [9]): 75 ± 5 µM
SMILES: C[C@H](CCC(=O)O)[C@H]1CC[C@H]2[C@@H]3CC[C@@H]4C[C@H](O)CC[C@]4(C)[C@H]3CC[C@]12C [LCA, lithocholic acid]

CMC(b) (mM) Critical Micellar Concentration [1]: 3.0 mM
LogPA−(d) 1-octanol-water partition coefficient [2]: 0.9
SMILES: C[C@H](CCC(=O)NCCS(=O)(=O)O)[C@H]1CC[C@H]2[C@@H]3[C@H](O)C[C@@H]4C[C@H](O)CC[C@]4(C)[C@H]3CC[C@]12C [TCDCA, taurochenodeoxycholic acid]

CMC(b) (mM) Critical Micellar Concentration [1]: 2.2 mM
LogPA−(d) 1-octanol-water partition coefficient [2]: 1.1
SMILES: C[C@H](CCC(=O)NCCS(=O)(=O)O)[C@H]1CC[C@H]2[C@@H]3[C@@H](O)C[C@@H]4C[C@H](O)CC[C@]4(C)[C@H]3CC[C@]12C [TUDCA, tauroursodeoxycholic acid]

CMC(b) (mM) Critical Micellar Concentration [1]: 6 to 10 mM
STCMC(c) (Dyne/cm) Surface Tension at CMC (Surface tension at CMC): 50.5 Dyne/cm
solubility (Water solubility): 7 to 7.5 µM (≈ 2.75 to 2.94 µg/mL)
LogPA−(d) 1-octanol-water partition coefficient [2]: 2.2
SMILES: C[C@H](CCC(=O)O)[C@H]1CC[C@H]2[C@@H]3[C@@H](O)C[C@@H]4C[C@H](O)CC[C@]4(C)[C@H]3CC[C@]12C [UDCA, ursodeoxycholic acid]
